Source: ChEMBL document CHEMBL1201862, “PubChem BioAssay data set” (2004)
Calls of active or inactive are those of the source.

Tests used:
INS1 = assay: beta cell apoptosis inhibitors, cytokine rescue, dose response, luminescence, retest (AID 449756); assay type: functional, cell-based; conditions: Rattus norvegicus;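 note: cell death triggered by IL-1 beta plus TNF-alpha plus IFN-gamma mixture; protective hits raise ATP signal compared with cytokine alone wells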
[1] = target: E3 ubiquitin-protein ligase UHRF1 (Homo sapiens, UniProt Q96T88); assay: Counterscreen for inhibitors of 5-meCpG-binding domain protein 2 (MBD2): TRFRET-based biochemical high throughput dose response assay to identify inhibitors of binding of ubiquitin-like with PHD and ring finger domains 1 (UHRF1) to methylated oligonucleotide.
Caspase-6 = target: T1, Caspase-6 (Homo sapiens, UniProt P55212); assay: human caspase-6 inhibitors, dose response, biochemical, VEID-R110 fluorescence, cherry-pick (AID 720632)
T1 sequence (P55212 whole entry): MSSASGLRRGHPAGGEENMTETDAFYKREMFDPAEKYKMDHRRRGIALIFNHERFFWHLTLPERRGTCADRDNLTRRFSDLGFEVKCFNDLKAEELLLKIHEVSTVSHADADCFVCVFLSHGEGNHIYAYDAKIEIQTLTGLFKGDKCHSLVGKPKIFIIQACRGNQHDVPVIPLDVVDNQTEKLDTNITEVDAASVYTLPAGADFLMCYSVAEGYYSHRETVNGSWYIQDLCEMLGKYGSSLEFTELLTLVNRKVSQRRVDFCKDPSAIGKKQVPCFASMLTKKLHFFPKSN

Streptokinase A = target: T2, Streptokinase A (Streptococcus pyogenes serotype M1, UniProt P10520); assay: S. pyogenes streptokinase expression inhibitors, potency, dose response, plasminogen activation absorbance, OD405 (AID 1914); assay type: functional, Streptococcus pyogenes M1 GAS;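 note: secreted streptokinase activity via plasminogen activation per viability signal from cell pellet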
T2 sequence (P10520 whole entry): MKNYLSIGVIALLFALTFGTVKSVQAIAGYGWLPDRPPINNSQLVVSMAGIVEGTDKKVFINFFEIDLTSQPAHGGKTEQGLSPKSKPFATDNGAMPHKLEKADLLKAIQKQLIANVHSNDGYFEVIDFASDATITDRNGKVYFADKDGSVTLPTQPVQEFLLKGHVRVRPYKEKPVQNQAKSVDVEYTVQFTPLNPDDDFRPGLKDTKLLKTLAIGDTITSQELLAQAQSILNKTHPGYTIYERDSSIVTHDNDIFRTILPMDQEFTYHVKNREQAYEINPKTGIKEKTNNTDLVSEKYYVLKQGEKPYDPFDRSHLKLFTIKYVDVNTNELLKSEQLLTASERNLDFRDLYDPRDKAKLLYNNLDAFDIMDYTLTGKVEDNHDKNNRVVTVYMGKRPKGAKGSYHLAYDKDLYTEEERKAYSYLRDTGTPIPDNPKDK

Streptococcus = assay: Group A Streptococcus viability loss, dose response, counter-screen for streptokinase expression inhibitor project, luminescence, BacTiterGlo (AID 1915); assay type: functional, organism-based;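 note: potency for reduction of bacterial viability or growth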
[2] = tested on: Streptococcus sp. 'group A'; assay: growth inhibition of control SK(-) GAS strain, dose response, counter-screen for streptokinase expression inhibitor project, luminescence, kanamycin, BacTiterGlo, confirmation (AID 1900); assay type: functional, organism-based
Protein RecA = target: T3, Protein RecA (Mycobacterium tuberculosis, UniProt P9WHJ3); assay: Fluorescence Cell-Free Homogeneous Dose Retest to Identify Inhibitors of RecA-Intein Splicing Activity. [Related pubchem assays (depositor defined):AID2097, AID2223, AID489010, AID492950]; assay type: functional
T3 sequence (P9WHJ3 whole entry): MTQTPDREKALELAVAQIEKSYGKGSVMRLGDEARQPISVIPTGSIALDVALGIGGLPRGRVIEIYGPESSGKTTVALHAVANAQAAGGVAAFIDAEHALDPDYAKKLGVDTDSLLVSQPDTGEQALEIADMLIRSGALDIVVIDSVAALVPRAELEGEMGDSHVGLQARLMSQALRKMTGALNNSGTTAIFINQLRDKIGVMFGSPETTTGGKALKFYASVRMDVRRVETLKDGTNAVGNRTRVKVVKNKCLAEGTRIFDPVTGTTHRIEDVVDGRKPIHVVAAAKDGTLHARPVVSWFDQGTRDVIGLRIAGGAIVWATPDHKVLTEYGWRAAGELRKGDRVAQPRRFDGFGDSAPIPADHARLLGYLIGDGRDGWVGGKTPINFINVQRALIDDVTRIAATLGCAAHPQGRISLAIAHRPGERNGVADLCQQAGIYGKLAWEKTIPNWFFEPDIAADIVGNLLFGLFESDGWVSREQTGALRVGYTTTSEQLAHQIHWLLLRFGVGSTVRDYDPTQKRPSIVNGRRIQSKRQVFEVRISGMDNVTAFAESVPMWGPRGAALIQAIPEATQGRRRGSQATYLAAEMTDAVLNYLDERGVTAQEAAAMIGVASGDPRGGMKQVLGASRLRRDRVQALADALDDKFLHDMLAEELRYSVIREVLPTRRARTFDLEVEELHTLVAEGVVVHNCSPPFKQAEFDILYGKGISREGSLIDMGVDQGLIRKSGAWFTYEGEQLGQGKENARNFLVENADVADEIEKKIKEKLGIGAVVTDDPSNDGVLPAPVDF

[3] = Intein inhibitors as potential Tuberculosis drugs, a cytotoxicity screen. [Related pubchem assays (depositor defined):AID2221, AID2223, AID434968, AID435010, AID449749, AID449750, AID489010]; assay type: functional
[4] = target: T4, Replicative DNA helicase DnaB (Mycobacterium tuberculosis, UniProt P9WMR3); assay: DnaB intein splicing inhibitors, dose response, biochemical, cell-free fluorescence (AID 449749); assay type: functional
T4 sequence (P9WMR3 whole entry): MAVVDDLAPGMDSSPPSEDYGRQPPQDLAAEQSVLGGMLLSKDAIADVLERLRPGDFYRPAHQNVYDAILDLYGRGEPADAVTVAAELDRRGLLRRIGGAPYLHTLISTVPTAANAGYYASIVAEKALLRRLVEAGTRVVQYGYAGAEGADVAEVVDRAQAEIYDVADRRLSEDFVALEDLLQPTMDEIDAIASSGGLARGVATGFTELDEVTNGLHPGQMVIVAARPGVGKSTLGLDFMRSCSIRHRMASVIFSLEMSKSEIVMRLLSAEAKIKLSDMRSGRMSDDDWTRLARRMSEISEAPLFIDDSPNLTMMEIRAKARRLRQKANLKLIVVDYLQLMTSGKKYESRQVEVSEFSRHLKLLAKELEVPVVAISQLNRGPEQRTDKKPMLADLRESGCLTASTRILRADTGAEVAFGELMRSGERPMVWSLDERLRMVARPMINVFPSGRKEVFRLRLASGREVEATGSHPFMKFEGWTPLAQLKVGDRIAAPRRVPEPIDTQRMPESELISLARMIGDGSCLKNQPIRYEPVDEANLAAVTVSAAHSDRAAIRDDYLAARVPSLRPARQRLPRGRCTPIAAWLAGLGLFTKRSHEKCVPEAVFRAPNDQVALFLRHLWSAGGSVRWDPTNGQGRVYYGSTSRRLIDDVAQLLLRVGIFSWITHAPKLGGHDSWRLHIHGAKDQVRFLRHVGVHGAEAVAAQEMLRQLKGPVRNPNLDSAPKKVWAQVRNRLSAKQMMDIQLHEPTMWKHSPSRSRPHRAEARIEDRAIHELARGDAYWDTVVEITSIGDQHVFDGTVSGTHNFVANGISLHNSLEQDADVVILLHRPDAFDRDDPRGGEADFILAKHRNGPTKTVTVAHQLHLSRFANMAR

Transthyretin = Transthyretin (Homo sapiens, UniProt P02766); assay: Luminescence-based cell-based high throughput dose response assay to identify activators of Transthyretin (TTR) transcription.; assay type: functional
[5] = MITF Measured in Cell-Based System Using Plate Reader - 2084-01_Inhibitor_Dose_DryPowder_Activity_Set7.; assay type: functional
[6] = MITF Orthogonal Assay: SK-MEL-5 CTG Assay Measured in Cell-Based System Using Plate Reader - 2084-02_Inhibitor_Dose_DryPowder_Activity_Set5.; assay type: functional
[7] = SK-MEL-5 parental cell viability reduction, dose response, orthogonal assay for MITF inhibitor project, CellTiter-Glo luminescence, dry powder, set 8 (AID 651586); assay type: functional, cell-based
[8] = MALME3 melanoma cell viability reduction, dose response, orthogonal assay for MITF inhibitor project, CellTiter-Glo luminescence, dry powder, set 5 (AID 651584); assay type: functional, cell-based; conditions: MALME-3
[9] = SK-MEL-5 parental line viability, dose response, MITF inhibitor project, cell-based, CellTiter-Glo, dry powder, set 6 (AID 624429); assay type: functional
[10] = A375 melanoma cell cytotoxicity, dose response, counter-screen for MITF inhibitor project, CellTiter-Glo luminescence, dry powder, set 7 (AID 624490); assay type: functional, cell-based; conditions: A-375
[11] = MITF Measured in Cell-Based System Using Plate Reader - 2084-01_Inhibitor_Dose_DryPowder_Activity_Set6.; assay type: functional
[12] = A375 melanoma cell viability loss, dose response, counter-screen for MITF inhibitor project, CellTiter-Glo luminescence, dry powder, set 4 (AID 624364); assay type: functional, cell-based; conditions: A-375;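 note: A375 melanoma cells are MITF independent so this is a counter screen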
[13] = TRPM1 promoter luciferase reporter signal decrease, dose response, MITF inhibitor project, cell-based, SK-MEL-5, dry powder, set 9 (AID 651588); assay type: functional
[14] = cytotoxicity in primary human melanocytes, dose response, cytotoxicity control, cell-based, plate reader, dry powder (AID 651920); assay type: functional
[15] = MITF Orthogonal Assay: MALME3 CTG Assay Measured in Cell-Based System Using Plate Reader - 2084-04_Inhibitor_Dose_DryPowder_Activity_Set6.; assay type: functional; conditions: MALME-3
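Throughout, for CC50: cells exposed to compound for 72 hours before luminescence readout.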

E3 ubiquitin-protein ligase UHRF1, sequence (Q96T88 whole entry, the tested form may be a part): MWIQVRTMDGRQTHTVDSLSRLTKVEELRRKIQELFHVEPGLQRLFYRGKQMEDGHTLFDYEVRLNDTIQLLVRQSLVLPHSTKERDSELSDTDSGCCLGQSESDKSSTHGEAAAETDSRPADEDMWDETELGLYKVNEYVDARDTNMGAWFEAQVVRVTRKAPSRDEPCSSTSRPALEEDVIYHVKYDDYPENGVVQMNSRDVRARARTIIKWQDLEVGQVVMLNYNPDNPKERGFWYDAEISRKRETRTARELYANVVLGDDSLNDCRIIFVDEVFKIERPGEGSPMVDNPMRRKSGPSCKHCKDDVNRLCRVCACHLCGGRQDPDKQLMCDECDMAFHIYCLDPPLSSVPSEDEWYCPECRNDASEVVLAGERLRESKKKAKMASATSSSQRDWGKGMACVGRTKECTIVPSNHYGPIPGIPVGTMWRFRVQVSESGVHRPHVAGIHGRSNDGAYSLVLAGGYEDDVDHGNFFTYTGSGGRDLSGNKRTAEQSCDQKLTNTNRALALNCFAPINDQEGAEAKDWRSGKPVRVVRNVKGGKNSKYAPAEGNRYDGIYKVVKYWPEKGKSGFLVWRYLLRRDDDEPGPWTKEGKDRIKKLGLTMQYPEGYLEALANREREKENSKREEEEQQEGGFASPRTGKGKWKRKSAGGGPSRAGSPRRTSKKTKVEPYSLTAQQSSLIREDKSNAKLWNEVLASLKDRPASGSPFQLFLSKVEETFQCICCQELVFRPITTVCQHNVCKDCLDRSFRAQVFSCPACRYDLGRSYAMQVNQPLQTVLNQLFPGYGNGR

## CCN(CC)CCNC(=O)c1ccc2c(c1NCCO)C(=O)c1ccccc1C2=O
INS1
  AC50: 4.09 µM (active)
[1]
  IC50: > 43.8 µM (inactive)
Caspase-6
  AC50: 5.96 µM (active)
Streptokinase A
  EC50: > 150 µM (not active)
Streptococcus
  EC50: > 150 µM (not active)
[2]
  EC50: 12.9 µM (active)
Protein RecA
  EC50: 0.524 µM (active)
[3]
  CC50: 26.2 µM (active)
[4]
  AC50: 4.5 µM (active)

## C=CCn1c(=O)c2c(nc3n2CC(C)CN3Cc2ccccc2)n(C)c1=O (stereo unspecified)
Transthyretin
  EC50: > 167 µM (inactive)

## O=C1C=C(NS(=O)(=O)c2cccs2)C(=O)c2ccccc21
[5]
  AC50: 5.89 µM (active)
[6]
  AC50: 15.8 µM (active)
[7]
  AC50: 32.8 µM (active)
[8]
  AC50: 57.6 µM (active)
[9]
  AC50: 13.3 µM (active)
[10]
  AC50: > 70 µM (inactive)
[11]
  AC50: 6.01 µM (active)
[12]
  AC50: > 70 µM (inactive)
[13]
  AC50: 16.9 µM (active)
[14]
  AC50: 17.6 µM (active)
[15]
  AC50: 57.6 µM (active)
